# Test results taken from US8486962B2, “Antifungal agents” (F2G Ltd., priority 2005, dated 2013).
# Like-named read-outs stand apart in the source and are kept apart here.
# Legend:
# [1] = tested on: Aspergillus fumigatus AF210; experiment: MIC, YAG medium, Aspergillus fumigatus AF210; type: cell-based; conditions: YAG medium; for MIC: Aspergillus fumigatus, AF210, read-out: MIC A Fum. 210
# Summary of the method: (§1)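 OD at 485 nm versus drug-free control defines MIC (mg/L): >80% inhibition for Candida albicans in RPMI/2% glucose/MOPS pH7.0 after 24-48 hrs at 35° C, >70% for Aspergillus strains in YAG medium after 24 hrs at 35° C. Spore inocula 1-2×10^4 cfu/ml; yeast 1-2×10^3 cfu/ml.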
# [2] = tested on: Aspergillus terreus; experiment: MIC, YAG medium, Aspergillus terreus; type: cell-based; conditions: YAG medium; for MIC: Aspergillus terreus
# Summary of the method: as §1
# [3] = tested on: A Terreus 49; experiment: MIC, YAG medium, A Terreus 49; type: cell-based, Aspergillus terreus; conditions: YAG medium; for MIC: Aspergillus terreus, read-out: MIC A Terreus 49
# Experimental: Measurement of Minimum Inhibitory Concentrations (MICs)
# Between 1 and 5 mgs of compound were accurately weighed out into a sterile Eppendorf tube. The compound was dissolved in DMSO to give a solution containing 5 mg/ml. Tubes were stored at −20° C. until required.
# On the day of testing thawed solutions were vortex mixed to ensure homogeneity. 30 μl of solution was removed and added to 570 μl of sterile water in a separate sterile Eppendorf. The thoroughly mixed solution was used to prepare a series of doubling dilutions in water, in a deep well plate. Eleven replicate plates were prepared using a Minitrak by aspirating 20 μl from each well into eleven clear polystyrene 96 well plates.
# Spores of Aspergillus spp (Aspergillus fumigatus, Aspergillus terreus, Aspergillus niger and Aspergillus flavus) were harvested from cultures grown on Sabarauds agar for 5 days, and resuspended in PBS/Tween 80 to approx 1×10^7 cfu/ml Other filamentous fungi (Fusarium solani, Scedosporium spp., Trichophyton spp., Absidia corymbifera), were grown on Sabarauds agar for 2-10 days and spores/hyphae resuspended in PBS/Tween to give approx 1×10^7 cfU/ml. Candida species (Candida albicans, Candida glabrata, Candida krusei, Candida parapsilosis and Candida tropicalis) were grown on Sabarauds agar, cells were harvested from the agar using a sterile loop and resuspended in PBS/Tween 80 to approx 1×10^6 cfu/ml. Each organism suspension was diluted in RPMI medium, containing 2% glucose and 0.135M MOPS buffer (pH7.0) to 2×10^4 cfu/ml for Aspergillus spp and other filamentous fungi and 2×10^3 cfu/ml for yeast. 80 μl of an organism suspension was added to each well of the plate containing drug dilutions.
# This produced MIC plates with a drug range 50-0.05 mg/L and organism inocula of 1-2×10^4 cfu/ml for Aspergillus spp and other filamentous fungi and 1-2×10^3 cfu/ml for yeasts. All plates were incubated for 24-48 hrs at 35° C. Growth was assessed by monitoring the optical density at 485 nm for each well. The MIC of a compound is the lowest drug concentration that inhibits growth of an organism by >80% compared with a drug free control. MICs are recorded as mg/L. Other growth media can be used for susceptibility testing, and the activity of the described compounds can also be assessed in a medium comprising, 1% glucose, 1% ammonium chloride and 0.5% yeast extract (YAG medium). To perform MIC tests in this medium, dilutions of compounds are prepared in microtitre plates as described above. Fungal strains to be tested are grown and harvested in an identical manner to that described above, each organism suspension is then diluted in YAG medium to 2×10^4 cfu/ml for Aspergillus spp and other filamentous fungi and 2×10^3 cfu/ml for yeast. 80 μl of an organism suspension was added to each well of the plate containing drug dilutions. This produced MIC plates with a drug range 50-0.05 mg/L and organism inocula of 1-2×10^4 cfu/ml for Aspergillus spp and other filamentous fungi and 1-2×10^3 cfu/ml for yeasts. All plates were incubated for 24 hrs at 35° C. Growth was assessed by monitoring the optical density at 485 nm for each well. The MIC of a compound is the lowest drug concentration that inhibits growth of an organism by >70% compared with a drug free control. MICs are recorded as mg/L. In cases where the MIC of an organism is […]0.05 mg/L the MIC is repeated using a concentration range of 0.5-0.0005 mg/L. MIC tests in YAG medium have more clear-cut endpoints and have slightly lower MICS than those performed in RPMI medium.
# The following organisms were tested: Aspergillus fumigatus AF293 and Aspergillus fumigatus AF210, Aspergillus niger, Aspergillus terreus, Aspergillus favus, Candida albicans, Candida krusei, Candida tropicalis, Candida glabrata, Candida parapsilosis, Trichophyton rubrum, Trichophyton mentagrophytes, Scedosporium prolificans, Scedosporium apiospermum, Absidia corymbifera, Fusarium solani.
# [4] = tested on: Aspergillus fumigatus AF293; experiment: MIC, YAG medium, Aspergillus fumigatus AF293; type: cell-based; conditions: YAG medium; for MIC: Aspergillus fumigatus, AF293, read-out: MIC A Fum. 293
# Summary of the method: as §1
# [5] = tested on: Aspergillus flavus; experiment: MIC, YAG medium, Aspergillus flavus; type: cell-based; conditions: YAG medium; for MIC: Aspergillus flavus
# Summary of the method: as §1
# [6] = tested on: Aspergillus niger; experiment: MIC, YAG medium, Aspergillus niger; type: cell-based; conditions: YAG medium; for MIC: Aspergillus niger
# Summary of the method: as §1
Compound,MIC A Fum. 210 [1] [µg/mL],MIC A Terreus 4 [2] [µg/mL],MIC A Terreus 49 [3] [µg/mL],MIC A Fum. 293 [4] [µg/mL],MIC A Flavus 01 [5] [µg/mL],MIC A Niger 1 [6] [µg/mL],MIC [1] [µg/mL],MIC ([2]; read-out: MIC A Terreus 4) [µg/mL],MIC [4] [µg/mL],MIC ([5]; read-out: MIC A Flavus 01) [µg/mL],MIC ([6]; read-out: MIC A Niger 1) [µg/mL],also measured
2-Oxo-2-(2-pyridin-3-yl-indolizin-3-yl)-N-(3-trifluoromethyl-phenyl)-acetamide [Example 223],0.25,0.12,0.031,0.5,0.062,0.5,–,–,–,–,–,–
"CON=C(C)c1ccc(NC(=O)C(=O)c2c(-c3ccccc3)cc3ccccn23)cc1 (mixture of isomers) [Example 243, N-(4-{1-[(E/Z)-Methoxyimino]-ethyl}-phenyl)-2-oxo-2-(2-phenyl-indolizin-3-yl)-acetamide]",0.12,0.008,0.004,0.062,0.015,0.015,–,–,–,–,–,–
"CC(=NO)c1ccc(NC(=O)C(=O)c2c(-c3ccccc3)cc3ccccn23)cc1 (mixture of isomers) [Example 250, N-(4-{1-[(E/Z)-Hydroxyimino]-ethyl}-phenyl)-2-oxo-2-(2-phenyl-indolizin-3-yl)-acetamide]",0.8,0.1,0.05,0.2,0.1,0.05,–,–,–,–,–,–
"COc1ccc(NC(=O)C(=NOCCN(C)C)c2c(-c3ccccc3)cc3ccccn23)cc1 (mixture of isomers) [Example 295, 2-[(E/Z)-2-Dimethylamino-ethoxyimino]-N-(4-methoxy-phenyl)-2-(2-phenyl-indolizin-3-yl)-acetamide]",50,6.25,6.25,>50,12.5,25,–,–,–,–,–,–
"COc1ccc(NC(=O)C(=NOCCCN(C)C)c2c(-c3ccccc3)cc3ccccn23)cc1 (mixture of isomers) [Example 296, 2-[(E/Z)-3-Dimethylamino-propoxyimino]-N-(4-methoxy-phenyl)-2-(2-phenyl-indolizin-3-yl)-acetamide]",>50,6.25,6.25,>50,12.5,25,–,–,–,–,–,–
"COc1ccc(NC(=O)C(=NOCCCC(=O)O)c2c(-c3ccccc3)cc3ccccn23)cc1 (mixture of isomers) [Example 297, 4-[1-(4-Methoxy-phenylcarbamoyl)-1-(2-phenyl-indolizin-3-yl)-meth-(E/Z)-ylideneaminooxy]-butyric acid]",12.5,0.8,0.4,12.5,0.4,1.6,–,–,–,–,–,–
"Cc1ccc(NC(=O)C(=O)c2c(-c3ccccc3)cc3ccccn23)cc1 [Example 135, 2-Oxo-2-(2-phenyl-indolizin-3-yl)-N-p-tolyl-acetamide]",–,–,–,–,–,–,0.062,0.008,0.12,0.015,0.015,MIC [3]: 0.002 µg/mL
"O=C(Nc1ccccc1)C(=O)c1c(-c2ccccc2)cc2ccccn12 [Example 136, 2-Oxo-N-phenyl-2-(2-phenyl-indolizin-3-yl)-acetamide]",–,–,–,–,–,–,0.12,0.031,0.25,0.031,0.031,MIC [3]: 0.004 µg/mL
"COc1ccccc1NC(=O)C(=O)c1c(-c2ccccc2)cc2ccccn12 [Example 137, N-(2-Methoxy-phenyl)-2-oxo-2-(2-phenyl-indolizin-3-yl)-acetamide]",–,–,–,–,–,–,0.5,0.06,0.2,0.125,0.062,MIC [3]: 0.06 µg/mL
"COc1cccc(NC(=O)C(=O)c2c(-c3ccccc3)cc3ccccn23)c1 [Example 138, N-(3-Methoxy-phenyl)-2-oxo-2-(2-phenyl-indolizin-3-yl)-acetamide]",–,–,–,–,–,–,0.12,0.031,0.12,0.015,0.12,MIC [3]: 0.004 µg/mL
"COc1ccc(NC(=O)C(=O)c2c(-c3ccccc3)cc3ccccn23)cc1 [Example 139, N-(4-Methoxy-phenyl)-2-oxo-2-(2-phenyl-indolizin-3-yl)-acetamide]",–,–,–,–,–,–,0.12,0.008,0.12,0.008,0.031,MIC [3]: 0.002 µg/mL
"COc1ccc2cc(-c3ccccc3)c(C(=O)C(=O)Nc3ccc(N(C)C)cc3)n2c1 [Example 242, N-(4-Dimethylamino-phenyl)-2-(6-methoxy-2-phenyl-indolizin-3-yl)-2-oxo-acetamide]",–,–,–,–,–,–,0.8,0.1,0.8,0.05,0.4,–
"O=C(C(=O)N1CCOCC1)c1c(-c2ccccc2)cc2ccccn12 [Example 300, 1-Morpholin-4-yl-2-(2-phenyl-indolizin-3-yl)-ethane-1,2-dione]",–,–,–,–,–,–,> 50,–,> 50,–,–,MIC ([2]; read-out: MIC A Terreus): > 50 µg/mL; MIC ([5]; read-out: MIC A Flavus): > 50 µg/mL; MIC ([6]; read-out: MIC A Niger): 25 µg/mL
"O=C(C(=O)N1CCCCCC1)c1c(-c2ccccc2)cc2ccccn12 [Example 301, 1-Azepan-1-yl-2-(2-phenyl-indolizin-3-yl)-ethane-1,2-dione]",–,–,–,–,–,–,25,–,50,–,–,MIC ([2]; read-out: MIC A Terreus): 12.5 µg/mL; MIC ([5]; read-out: MIC A Flavus): 50 µg/mL; MIC ([6]; read-out: MIC A Niger): 25 µg/mL
"CCN(C(=O)C(=O)c1c(-c2ccccc2)cc2ccccn12)c1ccccc1 [Example 302, N-Ethyl-2-oxo-N-phenyl-2-(2-phenyl-indolizin-3-yl)-acetamide]",–,–,–,–,–,–,25,–,50,–,–,MIC ([2]; read-out: MIC A Terreus): 25 µg/mL; MIC ([5]; read-out: MIC A Flavus): > 50 µg/mL; MIC ([6]; read-out: MIC A Niger): > 50 µg/mL
"Cc1c(NC(=O)C(=O)c2c(-c3ccccc3)cc3ccccn23)c(=O)n(-c2ccccc2)n1C [Example 303, N-(1,5-Dimethyl-3-oxo-2-phenyl-2,3-dihydro-1-pyrazol-4-yl)-2-oxo-2-(2-phenyl-indolizin-3-yl)-acetamide]",50,–,–,50,–,–,–,–,–,–,–,MIC A Terreus [2]: 25 µg/mL; MIC A Flavus [5]: 50 µg/mL; MIC A Niger [6]: 50 µg/mL
N-(3-Methyl-3H-benzoimidazol-5-yl)-2-oxo-2-(2-phenyl-indolizin-3-yl)-acetamide and N-(1-Methyl-1H-benzoimidazol-5-yl)-2-oxo-2-(2-phenyl-indolizin-3-yl)-acetamide [Example 241],12.5,12.5,–,12.5,0.8,12.5,–,–,–,–,–,–
